Measurements: patent US20230364039A1, “Methods of Managing Side Effects of a Vasopressin Receptor Antagonist Therapy” (Emory University, priority 2020, published 2023)
Where two headings read alike, the source gives them in different places. Blank lines part the entries; values can stand above or below the molecule they belong to.

Assays:
[1] = test system: tolvaptan treated rats; test: Urine osmolality / urine concentrating ability in tolvaptan treated rats; type: in vivo; settings: FIG. 1; for urine osmolality: rats on tolvaptan 10 mg/kg/day by gavage, AMPK activator 2.5, 5 and 10 mg/kg/day up to 14 days, vs tolvaptan only
Method: Tolvaptan (10 mg/kg/day) was delivered by gavage feeding daily. AMPK activator was given at 2.5, 5 and 10 mg/kg/day for up to 14 total days, with daily urine collection for osmolality determination. Light bars: Osmolality in rats receiving tolvaptan only. Black bars: treated rats. Mean±s.e., n=4-5 for lower doses, 8-10 for 10 mg/kg/day, *=p<0.05.

[2] = test system: vasopressin type 2 receptor knockout mouse model; test: Urine concentrating ability in vasopressin type 2 receptor knockout mouse model; type: in vivo
[3] = test system: adenosine monophosphate activated protein kinase (AMPK); test: AMPK activator potency and specificity (preliminary data)
[4] = Hypoglycemia liability of AMPK activators; type: in vivo; settings: preliminary data
[5] = general statement on some AMPK activators; cited from earlier work
[6] = test system: rodents with nephrogenic diabetes insipidus; settings: Efe et al., JCI Insight 2016; cited from earlier work
[7] = test system: autosomal dominant polycystic kidney disease (ADPKD); settings: cited from earlier work

potency and specificity as AMPK activator [3]: potent, specific
hypoglycemia [4]: does not cause hypoglycemia
SMILES: NC(=O)C1(CCCCCCCCCCCCC2(C(N)=O)CC2)CC1 [NP-5033, 1,1′-(dodecane-1,12-diyl)bis(cyclopropane-1-carboxamide)]
urine osmolality [1]: increases urine osmolality
urine osmolality ([1]; listed as AMPK activator): urine osmolality increases
urine concentrating ability ([1]; tolvaptan treated rats): improvement in urine concentrating ability
urine concentrating ability [2]: improvement in urine concentrating ability

SMILES: CN(C)C(=N)N=C(N)N [metformin]
hypoglycemia [5]: risk of developing hypoglycemia
urine concentration [6]: improves urine concentration

SMILES: Cc1ccccc1C(=O)Nc1ccc(C(=O)N2CCCC(O)c3cc(Cl)ccc32)c(C)c1 (stereo not shown) [tolvaptan, N-(4-(7-chloro-5-hydroxy-2,3,4,5-tetrahydro-1H-benzo[b]azepine-1-carbonyl)-3-methylphenyl)-2-methylbenzamide]
progression of renal cyst development ([7]; ADPKD): slows the progression of renal cyst development
side effect: urine volume ([7]; tolvaptan treatment, polyuria defined as greater than 2.5 L or 3 L over 24 hours in adults): overt polyuria
